From patent US8492371B2, “Compounds as cannabinoid receptor ligands” (priority 2009, dated 2013)
Like-named read-outs stand apart in the source and are kept apart here.

What was measured:
rat CB2 receptors = target: T1, rat CB2 receptors (Rattus norvegicus, UniProt Q9QZN9); experiment: Rat CB2 radioligand binding assay ([3H]CP-55,940 competition)
T1 construct: expressed in transfected cells; host or cells: HEK293
T1 sequence (Q9QZN9 1-360): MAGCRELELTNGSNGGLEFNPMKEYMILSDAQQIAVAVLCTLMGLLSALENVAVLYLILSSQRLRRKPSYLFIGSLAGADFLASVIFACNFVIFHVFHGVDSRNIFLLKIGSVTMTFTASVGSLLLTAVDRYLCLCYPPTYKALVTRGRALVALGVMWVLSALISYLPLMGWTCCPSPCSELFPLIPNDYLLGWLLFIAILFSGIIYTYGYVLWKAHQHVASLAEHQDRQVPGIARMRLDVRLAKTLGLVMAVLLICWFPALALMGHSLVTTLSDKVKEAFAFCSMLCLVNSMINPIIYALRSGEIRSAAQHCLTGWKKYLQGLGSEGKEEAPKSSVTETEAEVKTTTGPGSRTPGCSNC
Protocol: HEK293 cells stably expressing rat CB2 receptors were grown until a confluent monolayer was formed. Briefly, the cells were harvested and homogenized in TE buffer (50 mM Tris-HCl, 1 mM MgCl2, and 1 mM EDTA) using a polytron for 2×10 second bursts in the presence of protease inhibitors, followed by centrifugation at 45,000×g for 20 minutes. The final membrane pellet was re-homogenized in storage buffer (50 mM Tris-HCl, 1 mM MgCl2, and 1 mM EDTA and 10% sucrose) and frozen at −78° C. until used. Saturation binding reactions were initiated by the addition of membrane preparation (protein concentration of 20 μg/well for rat CB2) into wells of a deep well plate containing [^3H]CP-55,940 (120 Ci/mmol, a nonselective CB agonist commercially available from Tocris) in assay buffer (50 mM Tris, 2.5 mM EDTA, 5 mM MgCl2, and 0.5 mg/mL fatty acid free BSA, pH 7.4). After 45 min incubation at 30° C., binding reaction was terminated by the addition of 300 μL/well of cold assay buffer followed by rapid vacuum filtration through a UniFilter-96 GF/C filter plates (pre-soaked in 1 mg/mL BSA for 2 hours). The bound activity was counted in a TopCount using Microscint-20. Saturation experiments were conducted with twelve concentrations of [^3H]CP-55,940 ranging from 0.01 to 8 nM. Competition experiments were conducted with 0.5 nM [^3H]CP-55,940 and five concentrations of displacing ligands selected from the range of 0.01 nM to […] addition of 10 μM unlabeled CP-55,940 (Tocris, Ellisville, Mo.) was used to assess nonspecific binding.

human CB2 receptors = target: T2, human CB2 receptors (Homo sapiens, UniProt P34972); experiment: Human CB2 radioligand binding assay ([3H]CP-55,940 competition)
T2 construct: expressed in transfected cells; host or cells: HEK293
Protocol: The CB1 and CB2 radioligand binding assays described herein are utilized to determine the selectivity of compounds of the present invention for binding to CB2 relative to CB1 receptors.
HEK293 cells stably expressing human CB2 receptors were grown until a confluent monolayer was formed. Briefly, the cells were harvested and homogenized in TE buffer (50 mM Tris-HCl, 1 mM MgCl2, and 1 mM EDTA) using a polytron for 2×10 second bursts in the presence of protease inhibitors, followed by centrifugation at 45,000×g for 20 minutes. The final membrane pellet was re-homogenized in storage buffer (50 mM Tris-HCl, 1 mM MgCl2, and 1 mM EDTA and 10% sucrose) and frozen at −78° C. until used. Saturation binding reactions were initiated by the addition of membrane preparation (protein concentration of 5 μg/well for human CB2) into wells of a deep well plate containing ([^3H]CP-55,940 (120 Ci/mmol, a nonselective CB agonist commercially available from Tocris) in assay buffer (50 mM Tris, 2.5 mM EDTA, 5 mM MgCl2, and 0.5 mg/mL fatty acid free BSA, pH 7.4). After 90 min incubation at 30° C., binding reaction was terminated by the addition of 300 μL/well of cold assay buffer followed by rapid vacuum filtration through a UniFilter-96 GF/C filter plates (pre-soaked in 1 mg/mL BSA for 2 hours). The bound activity was counted in a TopCount using Microscint-20. Saturation experiments were conducted with twelve concentrations of [^3H]CP-55,940 ranging from 0.01 to 8 nM. Competition experiments were conducted with 0.5 nM [^3H]CP-55,940 and five concentrations of displacing ligands selected from the range of 0.01 nM to 10 μM. The addition of 10 μM unlabeled CP-55,940 (Tocris, Ellisville, Mo.) was used to assess nonspecific binding.

[1] = HEK293 membranes, 0.5 nM [3H]CP-55,940, read-out: human CB2 Ki

T2 sequence (P34972 whole entry): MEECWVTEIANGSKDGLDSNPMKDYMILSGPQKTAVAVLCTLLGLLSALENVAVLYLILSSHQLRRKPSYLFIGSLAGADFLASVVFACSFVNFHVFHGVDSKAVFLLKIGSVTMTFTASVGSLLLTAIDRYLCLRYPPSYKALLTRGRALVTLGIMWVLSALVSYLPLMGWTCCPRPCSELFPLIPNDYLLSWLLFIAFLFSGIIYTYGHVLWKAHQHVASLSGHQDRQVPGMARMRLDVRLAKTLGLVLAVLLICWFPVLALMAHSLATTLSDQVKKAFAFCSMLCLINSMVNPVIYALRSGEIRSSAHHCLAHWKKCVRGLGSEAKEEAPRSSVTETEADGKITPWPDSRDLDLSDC

Structure (SMILES) | Ki (rat CB2 receptors) | Ki (human CB2 receptors) | Ki (human CB2 receptors; [1]) | Ki (rat CB2 receptors; HEK293 membranes, 0.5 nM [3H]CP-55,940, read-out: rat CB2 Ki)
COc1ccc(C(F)(F)F)cc1C(=O)/N=c1\cc(C2(C)CC2)n(C)n1C[C@H]1CCCO1 [Example 33, 2-methoxy-N-{(3E)-1-methyl-5-(1-methylcyclopropyl)-2-[(2R)-tetrahydrofuran-2-ylmethyl]-1,2-dihydro-3H-pyrazol-3-ylidene}-5-(trifluoromethyl)benzamide] | 0.014 µM | 0.081 µM | – | –
COCCNc1ccc(C(F)(F)F)cc1C(=O)/N=c1\cc(C(C)(C)C)n(C)n1C[C@H]1CCCO1 [Example 34] | 0.0055 µM | 0.011 µM | – | –
Cn1c(C(C)(C)C)c/c(=N\C(=O)c2cc(C(F)(F)F)ccc2OCC(F)F)n1C[C@H]1CCCO1 [Example 35, N-{(3E)-5-tert-butyl-1-methyl-2-[(2R)-tetrahydrofuran-2-ylmethyl]-1,2-dihydro-3H-pyrazol-3-ylidene}-2-(2,2-difluoroethoxy)-5-(trifluoromethyl)benzamide] | 0.0055 µM | 0.017 µM | – | –
Cn1c(C(C)(C)C)c/c(=N\C(=O)c2cc(C(F)(F)F)ccc2NCCF)n1C[C@H]1CCCO1 [Example 39, N-{(3E)-5-tert-butyl-1-methyl-2-[(2R)-tetrahydrofuran-2-ylmethyl]-1,2-dihydro-3H-pyrazol-3-ylidene}-2-[(2-fluoroethyl)amino]-5-(trifluoromethyl)benzamide] | 0.0038 µM | 0.0089 µM | – | –
CC(F)COc1ccc(C(F)(F)F)cc1C(=O)/N=c1\cc(C(C)(C)C)n(C)n1C[C@H]1CCCO1 (stereo partly drawn) [Example 40, N-{(3E)-5-tert-butyl-1-methyl-2-[(2R)-tetrahydrofuran-2-ylmethyl]-1,2-dihydro-3H-pyrazol-3-ylidene}-2-(2-fluoropropoxy)-5-(trifluoromethyl)benzamide] | 0.022 µM | 0.032 µM | – | –
C[C@@H](F)COc1ccc(C(F)(F)F)cc1C(=O)/N=c1\cc(C(C)(C)C)n(C)n1C[C@H]1CCCO1 [Example 41, N-{(3E)-5-tert-butyl-1-methyl-2-[(2R)-tetrahydrofuran-2-ylmethyl]-1,2-dihydro-3H-pyrazol-3-ylidene}-2-{[(2R)-2-fluoropropyl]oxy}-5-(trifluoromethyl)benzamide] | 0.018 µM | 0.132 µM | – | –
CC(CF)Oc1ccc(C(F)(F)F)cc1C(=O)/N=c1\cc(C(C)(C)C)n(C)n1C[C@H]1CCCO1 (stereo partly drawn) [Example 42, N-{(3E)-5-tert-butyl-1-methyl-2-[(2R)-tetrahydrofuran-2-ylmethyl]-1,2-dihydro-3H-pyrazol-3-ylidene}-2-(2-fluoro-1-methylethoxy)-5-(trifluoromethyl)benzamide] | 0.03 µM | 0.139 µM | – | –
Cn1c(C(C)(C)C)c/c(=N\C(=O)c2cc(C(F)(F)F)ccc2OCCC(C)(C)F)n1C[C@H]1CCCO1 [Example 43, N-{(3E)-5-tert-butyl-1-methyl-2-[(2R)-tetrahydrofuran-2-ylmethyl]-1,2-dihydro-3H-pyrazol-3-ylidene}-2-(3-fluoro-3-methylbutoxy)-5-(trifluoromethyl)benzamide] | 0.01 µM | 0.019 µM | – | –
Cn1c(C(C)(C)C)c/c(=N\C(=O)c2cc(C(F)(F)F)ccc2OCC2(O)CCC2)n1C[C@H]1CCCO1 [Example 44, N-{(3E)-5-tert-butyl-1-methyl-2-[(2R)-tetrahydrofuran-2-ylmethyl]-1,2-dihydro-3H-pyrazol-3-ylidene}-2-[(1-hydroxycyclobutyl)methoxy]-5-(trifluoromethyl)benzamide] | 0.018 µM | 0.017 µM | – | –
COc1ccc(Cl)cc1C(=O)/N=c1\cc(C(C)(C)C)n(C)n1C[C@H]1CCCO1 [Example 45, N-{(3E)-5-tert-butyl-1-methyl-2-[(2R)-tetrahydrofuran-2-ylmethyl]-1,2-dihydro-3H-pyrazol-3-ylidene}-5-chloro-2-methoxybenzamide] | 0.0049 µM | 0.0082 µM | – | –
Cn1c(C(C)(C)C)c/c(=N\C(=O)c2cccc(C(F)(F)F)c2F)n1C[C@H]1CCCO1 [Example 46, N-{(3E)-5-tert-butyl-1-methyl-2-[(2R)-tetrahydrofuran-2-ylmethyl]-1,2-dihydro-3H-pyrazol-3-ylidene}-2-fluoro-3-(trifluoromethyl)benzamide] | 0.0013 µM | 0.0007 µM | – | –
COc1ccc(C(F)(F)F)cc1C(=O)/N=c1\cc(C(C)(C)C)n(C)n1C[C@H]1CCCO1 [Example 47, N-{(3E)-5-tert-butyl-1-methyl-2-[(2R)-tetrahydrofuran-2-ylmethyl]-1,2-dihydro-3H-pyrazol-3-ylidene}-2-methoxy-5-(trifluoromethyl)benzamide] | 0.0037 µM | 0.017 µM | – | –
COc1ccc(C#N)cc1C(=O)/N=c1\cc(C(C)(C)C)n(C)n1C[C@H]1CCCO1 [Example 48] | 0.029 µM | – | 0.143 µM | –
COc1ccc(Br)cc1C(=O)/N=c1\cc(C(C)(C)C)n(C)n1C[C@H]1CCCO1 [Example 49, 5-bromo-N-{(3E)-5-tert-butyl-1-methyl-2-[(2R)-tetrahydrofuran-2-ylmethyl]-1,2-dihydro-3H-pyrazol-3-ylidene}-2-methoxybenzamide] | 0.02 µM | 0.056 µM | – | –
Cn1c(C(C)(C)C)c/c(=N\C(=O)c2cc(F)ccc2Cl)n1C[C@H]1CCCO1 [Example 50, N-{(3E)-5-tert-butyl-1-methyl-2-[(2R)-tetrahydrofuran-2-ylmethyl]-1,2-dihydro-3H-pyrazol-3-ylidene}-2-chloro-5-fluorobenzamide] | 0.054 µM | 0.063 µM | – | –
Cn1c(C(C)(C)C)c/c(=N\C(=O)c2cc(F)cc(F)c2F)n1C[C@H]1CCCO1 [Example 51, N-{(3E)-5-tert-butyl-1-methyl-2-[(2R)-tetrahydrofuran-2-ylmethyl]-1,2-dihydro-3H-pyrazol-3-ylidene}-2,3,5-trifluorobenzamide] | 0.067 µM | 0.068 µM | – | –
Cn1c(C(C)(C)C)c/c(=N\C(=O)c2cc(C(F)(F)F)cc(Cl)c2F)n1C[C@H]1CCCO1 [Example 52, N-{(3E)-5-tert-butyl-1-methyl-2-[(2R)-tetrahydrofuran-2-ylmethyl]-1,2-dihydro-3H-pyrazol-3-ylidene}-3-chloro-2-fluoro-5-(trifluoromethyl)benzamide] | 0.0013 µM | 0.0066 µM | – | –
COc1c(Cl)cc(C(F)(F)F)cc1C(=O)/N=c1\cc(C(C)(C)C)n(C)n1C[C@H]1CCCO1 [Example 53, N-{(3E)-5-tert-butyl-1-methyl-2-[(2R)-tetrahydrofuran-2-ylmethyl]-1,2-dihydro-3H-pyrazol-3-ylidene}-3-chloro-2-methoxy-5-(trifluoromethyl)benzamide] | 0.0043 µM | 0.016 µM | – | –
Cn1c(C(C)(C)C)c/c(=N\C(=O)c2cc(C(F)(F)F)ccc2Cl)n1C[C@H]1CCCO1 [Example 54, N-{(3E)-5-tert-butyl-1-methyl-2-[(2R)-tetrahydrofuran-2-ylmethyl]-1,2-dihydro-3H-pyrazol-3-ylidene}-2-chloro-5-(trifluoromethyl)benzamide] | 0.0095 µM | 0.017 µM | – | –
COc1c(F)cc(F)cc1C(=O)/N=c1\cc(C(C)(C)C)n(C)n1C[C@H]1CCCO1 [Example 55, N-{(3E)-5-tert-butyl-1-methyl-2-[(2R)-tetrahydrofuran-2-ylmethyl]-1,2-dihydro-3H-pyrazol-3-ylidene}-3,5-difluoro-2-methoxybenzamide] | – | – | 0.152 µM | 0.143 µM
